Results reported in ChEMBL document CHEMBL1821644, “A prodrug approach for improving antituberculosis activity of potent Mycobacterium tuberculosis type II dehydroquinase inhibitors” (J Med Chem, 2011).
Converted amounts (≈) assume the structure as drawn. The source made the active and inactive calls. No cut-off for these calls is given here.

Key:
[1] = test system: Mycobacterium tuberculosis; assay: Antimicrobial activity against Mycobacterium tuberculosis H37Rv by Microplate Alamar blue assay; format: functional
MRC5 = assay: Cytotoxicity against human MRC5 at 300 to 400 ug/ml using crystal violet staining; format: cell-based
[2] = target: T1, 3-dehydroquinate dehydratase (Mycobacterium tuberculosis) (UniProt P9WPX7); assay: Reversible inhibition of Mycobacterium tuberculosis DHQ2
T1 sequence (whole entry): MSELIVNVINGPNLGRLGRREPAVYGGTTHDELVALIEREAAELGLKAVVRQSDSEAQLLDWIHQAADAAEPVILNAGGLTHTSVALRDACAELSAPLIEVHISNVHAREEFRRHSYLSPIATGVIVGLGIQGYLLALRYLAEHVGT

[3] = target: T2, 3-dehydroquinate dehydratase (Helicobacter pylori (strain ATCC 700392 / 26695) (Campylobacterpylori)) (UniProt Q48255); assay: Reversible inhibition of Helicobacter pylori DHQ2
T2 sequence (whole entry): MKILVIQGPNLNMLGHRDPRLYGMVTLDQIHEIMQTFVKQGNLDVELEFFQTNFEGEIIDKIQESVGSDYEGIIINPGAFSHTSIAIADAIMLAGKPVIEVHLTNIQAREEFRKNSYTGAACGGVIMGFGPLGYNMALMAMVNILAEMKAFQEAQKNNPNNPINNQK

[4] = target: T3, 3-dehydroquinate dehydratase (Mycobacterium tuberculosis, UniProt P9WPX7); assay: Competitive inhibition of Mycobacterium tuberculosis DHQ2
T3 sequence (P9WPX7 whole entry): T1 sequence (whole entry)

[5] = target: T4, 3-dehydroquinate dehydratase (Helicobacter pylori (strain ATCC 700392 / 26695) (Campylobacterpylori), UniProt Q48255); assay: Competitive inhibition of Helicobacter pylori DHQ2
T4 sequence (Q48255 whole entry): T2 sequence (whole entry)

Row | SMILES | MIC [1] | Activity (MRC5) | inhibition [2] | inhibition [3] | Ki [4] | Ki [5]
1 | COC(=O)[C@@]1(O)C[C@@H](O)[C@H](O)C(OCc2cc3ccc(Cl)cc3s2)=C1Cc1cc2ccc(Cl)cc2s1 | 80 µg/mL (≈ 141 µM) | Non-toxic |  |  |  | 
2 | C=CCC1=C(OCc2cc3ccccc3s2)[C@@H](O)[C@H](O)C[C@]1(O)C(=O)O |  |  | Active | Active |  | 
3 | COC(=O)[C@]1(O)C=C(OCc2cc3cc(C)ccc3s2)[C@@H](O)[C@H](O)C1 | > 160 µg/mL | Non-toxic |  |  |  | 
4 | O=C(O)[C@@]1(O)C[C@@H](O)[C@H](O)C(OCc2ccc3ccccc3c2)=C1Cc1ccc2ccccc2c1 |  |  | Active | Active | 6 µM | 0.26 µM
5 | Cc1ccc2sc(COC3=C(Cc4cc5cc(C)ccc5s4)[C@@](O)(C(=O)O)C[C@@H](O)[C@@H]3O)cc2c1 |  |  | Active | Active |  | 0.05 µM
6 | CCCOC(=O)[C@]1(O)C=C(OCc2ccc3ccccc3c2)[C@@H](OC(=O)CCC)[C@H](OC(=O)CCC)C1 | 5 µg/mL (≈ 9.75 µM) | Non-toxic |  |  |  | 
7 | CCCOC(=O)[C@]1(O)C=C(OCc2cc3ccccc3s2)[C@@H](O)[C@H](O)C1 | 5 µg/mL (≈ 13.2 µM) | Non-toxic |  |  |  | 
8 | Cc1ccc2sc(CC3=C(OCc4cccs4)[C@@H](O)[C@H](O)C[C@]3(O)C(=O)O)cc2c1 |  |  | Active | Active | 0.87 µM | 0.279 µM
9 | COC(=O)[C@]1(O)C=C(OCc2cc3ccc(Cl)cc3s2)[C@@H](O)[C@H](O)C1 | > 160 µg/mL | Non-toxic |  |  |  | 
10 | O=C(O)[C@@]1(O)C[C@@H](O)[C@H](O)C(OCc2cc3ccc(Cl)cc3s2)=C1Cc1cc2ccc(Cl)cc2s1 |  |  | Active | Active | 1.1 µM | 6.7 µM
11 | CCCOC(=O)[C@]1(O)C=C(OCc2cc3ccc(Cl)cc3s2)[C@@H](O)[C@H](O)C1 | 40 µg/mL (≈ 96.9 µM) | Non-toxic |  |  |  | 
12 | CCCOC(=O)[C@]1(O)C=C(OCc2ccc3sccc3c2)[C@@H](OC(=O)CCC)[C@H](O)C1 | 5 µg/mL (≈ 11.1 µM) | Non-toxic |  |  |  | 
13 | O=C(O)[C@@]1(O)C[C@@H](O)[C@H](O)C(OCc2cccs2)=C1Cc1cccs1 |  |  | Active | Active | 5.1 µM | 14.6 µM
14 | COC(=O)[C@]1(O)C=C(OCc2ccc3sccc3c2)[C@@H](O)[C@H](O)C1 | > 160 µg/mL | Non-toxic |  |  |  | 
15 | CCOC(=O)[C@@]1(O)C[C@@H](O)[C@H](O)C(OCc2cc3ccc(Cl)cc3s2)=C1Cc1cc2ccc(Cl)cc2s1 | > 160 µg/mL | Non-toxic |  |  |  | 
16 | O=C(O)[C@]1(O)C=C(OCc2ccc3ccccc3c2)[C@@H](O)[C@H](O)C1 |  |  | Active | Active | 0.035 µM | 0.31 µM
17 | O=C(O)[C@]1(O)C=C(OCc2cccs2)[C@@H](O)[C@H](O)C1 |  |  | Active | Active | 0.235 µM | 
18 | O=C(O)[C@]1(O)C=C(OCc2cc3ccc(Cl)cc3s2)[C@@H](O)[C@H](O)C1 |  |  | Active | Active | 0.035 µM | 0.205 µM
19 | CCCC(=O)O[C@@H]1C(OCc2ccc3sccc3c2)=C[C@@](O)(C(=O)OCC)C[C@H]1OC(=O)CCC | 5 µg/mL (≈ 9.91 µM) | Non-toxic |  |  |  | 
20 | O=C(O)[C@]1(O)C=C(OCc2cc3ccccc3s2)[C@@H](O)[C@H](O)C1 |  |  | Active | Active | 0.028 µM | 

Row | SMILES | MIC [1] | Activity (MRC5) | inhibition [2] | inhibition [3] | Ki [4] | Ki [5]
21 | CCOC(=O)[C@]1(O)C=C(OCc2cc3ccccc3s2)[C@@H](O)[C@H](O)C1 | 40 µg/mL (≈ 110 µM) | Non-toxic |  |  |  | 
22 | Cc1ccc2sc(COC3=C[C@@](O)(C(=O)O)C[C@@H](O)[C@@H]3O)cc2c1 |  |  | Active | Active |  | 
23 | CCOC(=O)[C@@]1(O)C[C@@H](O)[C@H](O)C(OCc2ccc3sccc3c2)=C1Cc1ccc2sccc2c1 | 160 µg/mL (≈ 313 µM) | Non-toxic |  |  |  | 
24 | CCOC(=O)[C@]1(O)C=C(OCc2ccc3ccccc3c2)[C@@H](O)[C@H](O)C1 | 20 µg/mL (≈ 55.8 µM) | Non-toxic |  |  |  | 
25 | CCCOC(=O)[C@]1(O)C=C(OCc2ccc3sccc3c2)[C@@H](OC(=O)CCC)[C@H](OC(=O)CCC)C1 | 20 µg/mL (≈ 38.6 µM) | Non-toxic |  |  |  | 
26 | CCOC(=O)[C@]1(O)C=C(OCc2cc3ccc(Cl)cc3s2)[C@@H](O)[C@H](O)C1 | 40 µg/mL (≈ 100 µM) | Non-toxic |  |  |  | 
27 | CCCC(=O)O[C@@H]1C(OCc2ccc3ccccc3c2)=C[C@@](O)(C(=O)OCC)C[C@H]1OC(=O)CCC | 5 µg/mL (≈ 10 µM) | Non-toxic |  |  |  | 
28 | COC(=O)[C@@]1(O)C[C@@H](O)[C@H](O)C(OCc2cc3cc(C)ccc3s2)=C1Cc1cc2cc(C)ccc2s1 | > 160 µg/mL | Non-toxic |  |  |  | 
29 | O=C(O)[C@]1(O)C=C(/C=C/COc2ccc(F)cc2)[C@@H](O)[C@H](O)C1 |  |  |  |  | 0.12 µM | 
30 | O=C(O)[C@]1(O)C=C(c2cccs2)[C@@H](O)[C@H](O)C1 |  |  |  |  | 0.25 µM | 
31 | O=C(O)[C@]1(O)C=C(OCc2ccc3sccc3c2)[C@@H](O)[C@H](O)C1 |  |  | Active | Active |  | 
32 | CCCOC(=O)[C@]1(O)C=C(OCc2ccc3sccc3c2)[C@@H](O)[C@H](O)C1 | 20 µg/mL (≈ 52.8 µM) | Non-toxic |  |  |  | 
33 | O=C(O)[C@@]1(O)C[C@@H](O)[C@H](O)C(OCc2cc3ccccc3s2)=C1Cc1cc2ccccc2s1 |  |  | Active | Active | 0.04 µM | 0.097 µM
34 | CCOC(=O)[C@]1(O)C=C(OCc2ccc3sccc3c2)[C@@H](O)[C@H](O)C1 | 40 µg/mL (≈ 110 µM) | Non-toxic |  |  |  | 
35 | O=C(O)[C@@]1(O)C[C@@H](O)[C@H](O)C(OCc2cc3ccccc3s2)=C1Cc1cccs1 |  |  | Active | Active |  | 0.28 µM
36 | O=C(O)[C@@]1(O)C[C@@H](O)[C@H](O)C(OCc2ccc3sccc3c2)=C1Cc1ccc2sccc2c1 |  |  | Active | Active |  | 0.14 µM
37 | COC(=O)[C@]1(O)C=C(OCc2cc3ccccc3s2)[C@@H](O)[C@H](O)C1 | > 160 µg/mL | Non-toxic |  |  |  | 
38 | CCCOC(=O)[C@]1(O)C=C(OCc2ccc3ccccc3c2)[C@@H](O)[C@H](O)C1 | 10 µg/mL (≈ 26.9 µM) | Non-toxic |  |  |  | 
39 | O=C(O)[C@@]1(O)C[C@@H](O)[C@H](O)C(OCc2cccs2)=C1Cc1ccc2sccc2c1 |  |  | Active | Active | 0.059 µM | 0.1 µM
40 | CCCC(=O)O[C@@H]1C(OCc2ccc3ccccc3c2)=C[C@@](O)(C(=O)OCC)C[C@H]1O | 10 µg/mL (≈ 23.3 µM) | Non-toxic |  |  |  | 
